# According to PubChem BioAssay (NCI):
#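 Method: 48-hour compound exposure of cells in 96-well plates, five concentrations, linear interpolation of endpoints. GI50 marks 50% less growth. At the TGI there is no net growth.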
# Tested on: RPMI-8226 leukemia
# Experiment: growth of human tumour cells (NCI), 48 h
row,SMILES,TGI [µM]
1,COc1ccc(-c2cc(=O)c3c(OC)c(OC)c(OC)cc3o2)cc1,> 100

# Tested on: RXF 393 renal
# Experiment: growth of human tumour cells (NCI), 48 h
SMILES,GI50 [µM],TGI [µM]
Oc1ccc(CN2CCC(N3CCCCC3)CC2)c2cccnc12,11.7,> 100
CC[C@@]1(O)C(=O)OCc2c1cc1n(c2=O)Cc2c-1nc1cc3c(cc1c2CCl)OCO3,< 0.0138,1.21
N#Cc1ccc(O)c(C2=NCC(c3cccc(Oc4ccccc4)c3)O2)c1 (stereo not given),1.53,9.56
CC1(C)OC2[C@@H](CNC(=O)NC(=O)NC(=O)CI)O[C@@H](n3cnc4c(NC(=O)Nc5ccccc5)ncnc43)[C@H]2O1 (stereo not given in full),6.96,13.6
COc1cc(C2=C(c3ccccc3)COC2=O)cc(OC)c1OC,1.56,> 100
O=C1Nc2c(C(F)(F)F)cccc2[C@]1(c1ccc(O)cc1)c1ccc(OC(F)(F)F)cc1,3.29,15.5
CC(=O)OC[C@]1(C)C=C2C(=O)[C@](C)(O)C3(CC3)C(C)=C2[C@H]1O,0.0612,0.199
Oc1ccc(NCc2nc3ccccc3[nH]2)cc1,30.3,> 100
C[C@]12CC[C@H]3[C@@H](CC=C4C[C@@H](O)CC[C@@]43C)[C@@H]1CC[C@@H]2N(CCO)CCO,–,> 100
CC(C)(C)OC(=O)N1CCc2c(sc3ncnc(N/N=C/c4cccc5ccccc45)c23)C1,2.54,7.41
CC[C@@H]1CN(C)[C@H]2Cc3c([nH]c4ccccc34)C(=O)C[C@H]1C2C(=O)OC (stereo not given in full),–,> 100
CCN(CC)c1ccc(/C=C/c2ccc3cc(C)ccc3[n+]2CC)cc1,0.216,3.41
COc1ccc(/C=C/c2nccc3ccccc23)cc1OC,–,> 10
COC1/C=C\C=C(/C)C(=O)NC2=CC(=O)C(=O)C(=C2O)CC(C)CC(OC)C(O)C(C)/C=C(\C)C1OC(N)=O (stereo not given),–,27.5
O=c1[nH]ncc(Br)c1Br,1.38,2.71
COc1ccc(-c2cc(=O)c3c(OC)c(OC)c(OC)cc3o2)cc1,–,> 100

# Tested on: SW-620 colon
# Experiment: growth of human tumour cells (NCI), 48 h
SMILES,GI50 [µM],TGI [µM]
Oc1ccc(CN2CCC(N3CCCCC3)CC2)c2cccnc12,17,> 100
CC[C@@]1(O)C(=O)OCc2c1cc1n(c2=O)Cc2c-1nc1cc3c(cc1c2CCl)OCO3,< 0.0136,–
N#Cc1ccc(O)c(C2=NCC(c3cccc(Oc4ccccc4)c3)O2)c1 (stereo not given),0.508,22.8
CC1(C)OC2[C@@H](CNC(=O)NC(=O)NC(=O)CI)O[C@@H](n3cnc4c(NC(=O)Nc5ccccc5)ncnc43)[C@H]2O1 (stereo not given in full),2.08,8.13
COc1cc(C2=C(c3ccccc3)COC2=O)cc(OC)c1OC,1.68,> 100
O=C1Nc2c(C(F)(F)F)cccc2[C@]1(c1ccc(O)cc1)c1ccc(OC(F)(F)F)cc1,14.5,32.2
CC(=O)OC[C@]1(C)C=C2C(=O)[C@](C)(O)C3(CC3)C(C)=C2[C@H]1O,0.044,> 50
Oc1ccc(NCc2nc3ccccc3[nH]2)cc1,> 100,> 100
C[C@]12CC[C@H]3[C@@H](CC=C4C[C@@H](O)CC[C@@]43C)[C@@H]1CC[C@@H]2N(CCO)CCO,–,> 100
CC(C)(C)OC(=O)N1CCc2c(sc3ncnc(N/N=C/c4cccc5ccccc45)c23)C1,3.87,> 100
CC[C@@H]1CN(C)[C@H]2Cc3c([nH]c4ccccc34)C(=O)C[C@H]1C2C(=O)OC (stereo not given in full),–,> 100
CCN(CC)c1ccc(/C=C/c2ccc3cc(C)ccc3[n+]2CC)cc1,0.229,15.6
COc1ccc(/C=C/c2nccc3ccccc23)cc1OC,–,> 10
COC1/C=C\C=C(/C)C(=O)NC2=CC(=O)C(=O)C(=C2O)CC(C)CC(OC)C(O)C(C)/C=C(\C)C1OC(N)=O (stereo not given),–,18.3
O=c1[nH]ncc(Br)c1Br,1.7,3.07
COc1ccc(-c2cc(=O)c3c(OC)c(OC)c(OC)cc3o2)cc1,–,> 100

# Tested on: T-47D breast
# Experiment: growth of human tumour cells (NCI), 48 h
SMILES,GI50 [µM],TGI [µM]
Oc1ccc(CN2CCC(N3CCCCC3)CC2)c2cccnc12,23.6,> 100
CC[C@@]1(O)C(=O)OCc2c1cc1n(c2=O)Cc2c-1nc1cc3c(cc1c2CCl)OCO3,< 0.01,> 71.9
N#Cc1ccc(O)c(C2=NCC(c3cccc(Oc4ccccc4)c3)O2)c1 (stereo not given),0.817,59.6
CC1(C)OC2[C@@H](CNC(=O)NC(=O)NC(=O)CI)O[C@@H](n3cnc4c(NC(=O)Nc5ccccc5)ncnc43)[C@H]2O1 (stereo not given in full),9.64,21.5
COc1cc(C2=C(c3ccccc3)COC2=O)cc(OC)c1OC,20.9,> 100
O=C1Nc2c(C(F)(F)F)cccc2[C@]1(c1ccc(O)cc1)c1ccc(OC(F)(F)F)cc1,1.18,17.9
CC(=O)OC[C@]1(C)C=C2C(=O)[C@](C)(O)C3(CC3)C(C)=C2[C@H]1O,0.207,3.65
Oc1ccc(NCc2nc3ccccc3[nH]2)cc1,31.2,> 100
C[C@]12CC[C@H]3[C@@H](CC=C4C[C@@H](O)CC[C@@]43C)[C@@H]1CC[C@@H]2N(CCO)CCO,–,> 100
CC(C)(C)OC(=O)N1CCc2c(sc3ncnc(N/N=C/c4cccc5ccccc45)c23)C1,3.04,31.9
CC[C@@H]1CN(C)[C@H]2Cc3c([nH]c4ccccc34)C(=O)C[C@H]1C2C(=O)OC (stereo not given in full),–,> 100
CCN(CC)c1ccc(/C=C/c2ccc3cc(C)ccc3[n+]2CC)cc1,0.0182,1.41
COc1ccc(/C=C/c2nccc3ccccc23)cc1OC,–,> 10
COC1/C=C\C=C(/C)C(=O)NC2=CC(=O)C(=O)C(=C2O)CC(C)CC(OC)C(O)C(C)/C=C(\C)C1OC(N)=O (stereo not given),–,70.9
O=c1[nH]ncc(Br)c1Br,2.12,6.07
COc1ccc(-c2cc(=O)c3c(OC)c(OC)c(OC)cc3o2)cc1,–,62.4

# Tested on: UACC-257 melanoma
# Experiment: growth of human tumour cells (NCI), 48 h
SMILES,GI50 [µM],TGI [µM]
Oc1ccc(CN2CCC(N3CCCCC3)CC2)c2cccnc12,27.6,99.3
CC[C@@]1(O)C(=O)OCc2c1cc1n(c2=O)Cc2c-1nc1cc3c(cc1c2CCl)OCO3,< 0.0446,1.59
N#Cc1ccc(O)c(C2=NCC(c3cccc(Oc4ccccc4)c3)O2)c1 (stereo not given),2.28,7.29
CC1(C)OC2[C@@H](CNC(=O)NC(=O)NC(=O)CI)O[C@@H](n3cnc4c(NC(=O)Nc5ccccc5)ncnc43)[C@H]2O1 (stereo not given in full),9.91,17.8
COc1cc(C2=C(c3ccccc3)COC2=O)cc(OC)c1OC,> 25,> 94.8
O=C1Nc2c(C(F)(F)F)cccc2[C@]1(c1ccc(O)cc1)c1ccc(OC(F)(F)F)cc1,11.8,24.9
CC(=O)OC[C@]1(C)C=C2C(=O)[C@](C)(O)C3(CC3)C(C)=C2[C@H]1O,0.28,1.12
Oc1ccc(NCc2nc3ccccc3[nH]2)cc1,88,> 100
C[C@]12CC[C@H]3[C@@H](CC=C4C[C@@H](O)CC[C@@]43C)[C@@H]1CC[C@@H]2N(CCO)CCO,–,> 100
CC(C)(C)OC(=O)N1CCc2c(sc3ncnc(N/N=C/c4cccc5ccccc45)c23)C1,5.8,69.6
CC[C@@H]1CN(C)[C@H]2Cc3c([nH]c4ccccc34)C(=O)C[C@H]1C2C(=O)OC (stereo not given in full),–,> 100
CCN(CC)c1ccc(/C=C/c2ccc3cc(C)ccc3[n+]2CC)cc1,0.116,1.28
COc1ccc(/C=C/c2nccc3ccccc23)cc1OC,–,> 10
COC1/C=C\C=C(/C)C(=O)NC2=CC(=O)C(=O)C(=C2O)CC(C)CC(OC)C(O)C(C)/C=C(\C)C1OC(N)=O (stereo not given),–,> 36.3
O=c1[nH]ncc(Br)c1Br,2,4.84
COc1ccc(-c2cc(=O)c3c(OC)c(OC)c(OC)cc3o2)cc1,–,> 100

# Tested on: UACC-62 melanoma
# Experiment: growth of human tumour cells (NCI), 48 h
SMILES,GI50 [µM],TGI [µM]
Oc1ccc(CN2CCC(N3CCCCC3)CC2)c2cccnc12,4.87,67.5
CC[C@@]1(O)C(=O)OCc2c1cc1n(c2=O)Cc2c-1nc1cc3c(cc1c2CCl)OCO3,< 0.01,0.205
N#Cc1ccc(O)c(C2=NCC(c3cccc(Oc4ccccc4)c3)O2)c1 (stereo not given),1.03,2.27
CC1(C)OC2[C@@H](CNC(=O)NC(=O)NC(=O)CI)O[C@@H](n3cnc4c(NC(=O)Nc5ccccc5)ncnc43)[C@H]2O1 (stereo not given in full),8.44,17.1
COc1cc(C2=C(c3ccccc3)COC2=O)cc(OC)c1OC,1.63,> 100
O=C1Nc2c(C(F)(F)F)cccc2[C@]1(c1ccc(O)cc1)c1ccc(OC(F)(F)F)cc1,11.9,25
CC(=O)OC[C@]1(C)C=C2C(=O)[C@](C)(O)C3(CC3)C(C)=C2[C@H]1O,0.0894,0.302
Oc1ccc(NCc2nc3ccccc3[nH]2)cc1,70.5,> 100
C[C@]12CC[C@H]3[C@@H](CC=C4C[C@@H](O)CC[C@@]43C)[C@@H]1CC[C@@H]2N(CCO)CCO,–,> 100
CC(C)(C)OC(=O)N1CCc2c(sc3ncnc(N/N=C/c4cccc5ccccc45)c23)C1,2.65,10.2
CC[C@@H]1CN(C)[C@H]2Cc3c([nH]c4ccccc34)C(=O)C[C@H]1C2C(=O)OC (stereo not given in full),–,> 100
CCN(CC)c1ccc(/C=C/c2ccc3cc(C)ccc3[n+]2CC)cc1,0.152,1.37
COc1ccc(/C=C/c2nccc3ccccc23)cc1OC,–,> 10
COC1/C=C\C=C(/C)C(=O)NC2=CC(=O)C(=O)C(=C2O)CC(C)CC(OC)C(O)C(C)/C=C(\C)C1OC(N)=O (stereo not given),–,> 32.6
O=c1[nH]ncc(Br)c1Br,1.27,2.58
COc1ccc(-c2cc(=O)c3c(OC)c(OC)c(OC)cc3o2)cc1,–,> 100
